Data published in the NIST ThermoML archive (doi:10.1016/j.fluid.2018.01.015).
± gives the expanded uncertainty stated by the source.

Tests used:
[1] = Molar enthalpy of transition or fusion; conditions: Crystal; DSC
[2] = Crystal; DTA

Cc1cc(C)c(C(=O)P(=O)(c2ccccc2)c2ccccc2)c(C)c1 [(2,4,6-trimethylbenzoyl) diphenylphosphine oxide]
Molar enthalpy of transition or fusion [1]: 6.03 ± 0.172 kcal/mol | Normal melting temperature [2]: 92.66 ± 0.39 °C
